Source: patent publication US20040072183A1, “Adhesive protein and uses thereof” (priority 2000, published 2004)

Experiments:
spiggin mRNA [1] = assay: Hormone implant dose response analysis of spiggin mRNA in kidney (slot blot, FIG. 3); format: in vivo, three-spined stickleback (Gasterosteus aculeatus); conditions: hormone in silastic capsule implanted in abdominal cavity, one month exposure
Procedure: Hormones at different concentrations were dissolved in […] of coconut oil and placed within silastic capsules (Dow Corning, internal diameter 0.6 mm, outer diameter 1.2 mm, length 5 mm). The sealed capsules were implanted into the abdominal cavity of each fish which were subsequently placed in aquaria containing 200 l of brackish water (0.5% salinity) at 17° C. under a stimulatory photoperiod of L:D 16:8. Following one month exposure the fish were sacrificed and the required organs removed by dissection and stored at −70° C.
[…] total RNA was combined with 90 ml of 20×SSC and 60 ml 37% formaldehyde. The final volume was adjusted to 300 ml with MQ water. Each preparation was transferred onto nylon membrane (Amersham Pharmacia Biotech) using a Minifold II Slot Blot apparatus (Schleicher & Schuell). The RNA was bound onto the membrane by cross-linking in a CL-1000 UV apparatus (UVP). Membranes were radioactively probed as described below (Paragraph 10) and the relative levels of mRNA were determined using a GS-250 Molecular Phosphoimager coupled to the Molecular Analyst (Version 1:41) package (Bio Rad). All dose-response determinations were performed in triplicate and the results were expressed as the mean (±SD) for each hormone and dose assayed. […]

spiggin = conditions: 11-KT treatment; cited from earlier work
spiggin mRNA [2] = assay: Methyltestosterone induction of spiggin mRNA via water in juvenile fish (slot blot, FIG. 5); format: in vivo, three spined stickleback; conditions: exposure via water, 10 days, whole fish homogenate
Procedure: Juvenile three spined sticklebacks, with a body weight of approximately 100 mg, were exposed to different doses (100 pM, 10 nM and 1 uM) of methyltestosterone or to a combination of 10 nM methyltestosterone and 10 uM flutamide (an antiandrogen). After 10 days the fish were sacrificed. Whole fish were homogenized and spiggin mRNA levels were determined using slot blot analysis.

Compound: C[C@]12CC(=O)[C@H]3[C@@H](CCC4=CC(=O)CC[C@@]43C)[C@@H]1CC[C@@H]2O [11-ketotestosterone]
- Inducibility of spiggin expression in kidney (spiggin mRNA [1]): inducible
- Inducibility of spiggin production (spiggin): inducible

Compound: C[C@]12CCC(=O)C=C1CC[C@@H]1[C@@H]2CC[C@@]2(C)[C@H]1CC[C@]2(C)O [methyltestosterone]
- Methyltestosterone concentration effective at inducing spiggin mRNA (spiggin mRNA [2]): ≥ 100 pM
